The values below come from PubChem BioAssay (NCI).

Some test systems named below: SK-MEL-5 melanoma; CAKI-1 renal; HCC-2998 colon; K-562 leukemia; SF-539 CNS; A498 renal; SR leukemia; HOP-92 NSCLC; NCI-H226 lung; SNB-19 CNS; MALME-3M melanoma; COLO 205 colon; PC-3 prostate; MDA-MB-231 breast; HT29 colon.
Holding throughout (test): growth of human tumour cells (NCI), 48 h

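1) Cells in 96-well plates. 2) Compound, 48 h, 5 concentrations. 3) Linear interpolation between surrounding doses. 4) Unreached endpoint = highest concentration. TGI: total growth inhibition.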

For `N#C/C(c1nc2ccccc2[nH]1)=c1\s/c(=C/c2ccc(Cl)cc2)c(=O)n1-c1ccccc1`, the TGI in the experiment with SK-MEL-5 melanoma, with CAKI-1 renal, in the experiment on HCC-2998 colon, with K-562 leukemia, in the experiment with SF-539 CNS and with A498 renal was greater than 100 µM each time. The TGI in the experiment with SR leukemia, with HOP-92 NSCLC, in the experiment with NCI-H226 lung, in the experiment with SNB-19 CNS, in the experiment with MALME-3M melanoma and in the experiment on COLO 205 colon was greater than 100 µM in each case.
Turning to `Cc1ccc(N2C(=O)CS/C2=C(\C#N)c2nc3ccccc3[nH]2)cc1`, the TGI in the experiment on SK-MEL-5 melanoma, in the experiment on CAKI-1 renal, with HCC-2998 colon, in the experiment on K-562 leukemia, in the experiment with SF-539 CNS and with A498 renal was greater than 100 µM each time. Further, the TGI with SR leukemia, in the experiment with HOP-92 NSCLC, in the experiment on NCI-H226 lung, with SNB-19 CNS, in the experiment with MALME-3M melanoma and with COLO 205 colon was greater than 100 µM each time.
Consider `CCOP(=O)(OCC)C(C)(CC)N/C(=N/C(NC(C)=O)(C(F)(F)F)C(F)(F)F)NC1=NC(C(F)(F)F)(C(F)(F)F)N=C(C(F)(F)F)O1` (stereo unspecified), for which the TGI is 31.9 µM in the experiment with SK-MEL-5 melanoma; greater than 100 µM in the experiment on CAKI-1 renal; greater than 100 µM in the experiment on HCC-2998 colon; greater than 100 µM in the experiment on K-562 leukemia; greater than 100 µM with SF-539 CNS; greater than 100 µM in the experiment on A498 renal. Also, the TGI in the experiment with HOP-92 NSCLC is 63.9 µM; in the experiment on PC-3 prostate, 77.6 µM; in the experiment with NCI-H226 lung, 70.1 µM; with SNB-19 CNS, greater than 100 µM; with MALME-3M melanoma, 58.2 µM; in the experiment on MDA-MB-231 breast, 48.7 µM. Also, the TGI is 29.8 µM in the experiment on COLO 205 colon and greater than 100 µM with HT29 colon.
Regarding `CCC12CCCN(Cc3ccccc3)C1c1c(n(C)c3ccccc13)C(C(=O)OC)C2` (stereo unspecified), the TGI in the experiment with SK-MEL-5 melanoma was 97.1 µM; in the experiment with CAKI-1 renal, greater than 239 µM; in the experiment with HCC-2998 colon, greater than 239 µM; with K-562 leukemia, greater than 239 µM; in the experiment on SF-539 CNS it was greater than 239 µM; in the experiment with SR leukemia, greater than 239 µM. The TGI in the experiment with HOP-92 NSCLC, in the experiment with NCI-H226 lung, in the experiment with SNB-19 CNS, in the experiment with MALME-3M melanoma, in the experiment with COLO 205 colon and in the experiment on HT29 colon was greater than 239 µM throughout.
With `CC(=O)NNc1nc(C)c(C(=O)/C=C/c2ccccc2Cl)s1`, the TGI in the experiment on SK-MEL-5 melanoma, in the experiment on CAKI-1 renal, with HCC-2998 colon, in the experiment with K-562 leukemia, in the experiment with SF-539 CNS and in the experiment with A498 renal was greater than 100 µM throughout. Also, the TGI in the experiment on HOP-92 NSCLC, in the experiment with NCI-H226 lung, in the experiment on SNB-19 CNS, in the experiment on MALME-3M melanoma, with COLO 205 colon and with HT29 colon was greater than 100 µM each time.
In the case of `CCOC(=O)/C=C/n1c2ccccc2c(=O)c2ccccc21`, the TGI in the experiment with CAKI-1 renal, in the experiment with HCC-2998 colon, in the experiment with K-562 leukemia, with SF-539 CNS, in the experiment on A498 renal and in the experiment with SR leukemia was greater than 100 µM each time. The TGI in the experiment on NCI-H226 lung, in the experiment on SNB-19 CNS, in the experiment with MALME-3M melanoma, with COLO 205 colon and in the experiment with HT29 colon was greater than 100 µM each time.
`O=S(Nc1ccccc1)c1cccc(Cl)c1` (stereo unspecified): the TGI in the experiment with SK-MEL-5 melanoma is greater than 100 µM; in the experiment with CAKI-1 renal, greater than 100 µM; with HCC-2998 colon, 76.3 µM; in the experiment on K-562 leukemia it was greater than 100 µM; with SF-539 CNS it was 77.6 µM; in the experiment with SR leukemia, greater than 100 µM. Also, the TGI with PC-3 prostate, with NCI-H226 lung, in the experiment with SNB-19 CNS, in the experiment with MALME-3M melanoma, in the experiment on MDA-MB-231 breast and in the experiment on COLO 205 colon was greater than 100 µM throughout. In addition, in the experiment on HT29 colon, the TGI is greater than 100 µM.
As for `CCSc1n/c(=C\c2ccco2)c2nncn12`, the TGI with SK-MEL-5 melanoma, in the experiment on K-562 leukemia, in the experiment with SR leukemia, in the experiment on HOP-92 NSCLC, in the experiment with PC-3 prostate and with NCI-H226 lung was greater than 100 µM each time. For the same compound, the TGI with SNB-19 CNS, in the experiment on MALME-3M melanoma, in the experiment with MDA-MB-231 breast, with COLO 205 colon and in the experiment on HT29 colon was greater than 100 µM in each case.
With `Nc1nc(SCc2ccc([N+](=O)[O-])cc2)nc2c1ncn2C1OC(CO)C(O)C1O` (stereo unspecified), the TGI with SK-MEL-5 melanoma, with HCC-2998 colon, in the experiment with K-562 leukemia, with A498 renal, with SR leukemia and in the experiment with NCI-H226 lung was greater than 100 µM throughout. Also, the TGI in the experiment with SNB-19 CNS, with MALME-3M melanoma, in the experiment with COLO 205 colon and in the experiment with HT29 colon was greater than 100 µM throughout.
As to `CN1c2ccccc2N(C(=O)c2ccc(Cl)cc2)C(CC(=O)O)c2cccn21` (stereo unspecified), the TGI with SK-MEL-5 melanoma, with CAKI-1 renal, in the experiment with HCC-2998 colon, in the experiment on K-562 leukemia, with SF-539 CNS and with A498 renal was greater than 100 µM throughout. In addition, the TGI in the experiment with HOP-92 NSCLC, with NCI-H226 lung, in the experiment on SNB-19 CNS, in the experiment with MALME-3M melanoma, in the experiment on COLO 205 colon and in the experiment with HT29 colon was greater than 100 µM in each case.
As to `CC(C)CC(NC(=O)OC(C)(C)C)C(=O)Nc1ccc(Nc2nc(F)nc(-c3c4ccccc4c4n3CCS4)n2)cc1` (stereo unspecified), the TGI in the experiment with SK-MEL-5 melanoma is 41.2 µM; in the experiment with CAKI-1 renal it was 33.1 µM; in the experiment on HCC-2998 colon, 35 µM; with K-562 leukemia it was 57.8 µM; in the experiment on SF-539 CNS, 37.7 µM; in the experiment with A498 renal, 45.8 µM. Also, the TGI was 34.7 µM in the experiment with SR leukemia; 34.4 µM in the experiment on HOP-92 NSCLC; 36.9 µM with SNB-19 CNS; 38.9 µM with MALME-3M melanoma; 33.3 µM in the experiment on COLO 205 colon; 34.8 µM in the experiment on HT29 colon.
